{"source": "paper PMC6390093", "about": "“Structural basis of small RNA hydrolysis by oligoribonuclease (CpsORN) from Colwellia psychrerythraea strain 34H” (Scientific Reports, 2019)", "molecules": {"B1": {"name": "oligoribonuclease from Colwellia psychrerythraea strain 34H (CpsORN), wild-type (enzyme, UniProt Q47VZ4 1-181, looked up)", "chain": "MAGNDSNLIWLDLEMTGLEPVEDVILEIAIIITDSELNILAQGPIFAISQTDDVLDNMNPWCIEHHGKSGLTQRCRDSEVSLAHATKESLAFVQEWVPQGKSPMCGNSIGQDRRFINKYMPDFEDHFHYRNLDVSTIKELAKRWKPEVLESVVKTGAHLALDDIKESIAELKVYRELFFKL", "notes": "oligoribonuclease (CpsORN) of Colwellia psychrerythraea strain 34H, full-length gene orn, residues 1-181; pET-28a construct with a thrombin site after the His tag; also called unliganded CpsORN; source: E. coli BL21(DE3), purified (Ni-NTA, thrombin cleavage, Superdex 200); not shown: His6, N-terminal, cleaved"}, "B2": {"name": "CpsORN D163A inactive mutant (enzyme, Colwellia psychrerythraea strain 34H, UniProt Q47VZ4 1-181, looked up)", "chain": "B1 chain with D163A", "notes": "oligoribonuclease (CpsORN) of Colwellia psychrerythraea strain 34H, full-length gene orn with Asp163 replaced by alanine; Made from the wild-type plasmid and purified by the same procedure as the wild type; also called D163A mutant; source: E. coli BL21(DE3), purified (Ni-NTA, thrombin cleavage, Superdex 200); not shown: His6, N-terminal, cleaved"}}, "key": {"CpsORN [1]": {"molecular_target": "T1, CpsORN (Colwellia psychrerythraea, UniProt Q47VZ4, D163A)", "T1 construct": "gene orn", "T1 sequence (Q47VZ4 whole entry D163A)": "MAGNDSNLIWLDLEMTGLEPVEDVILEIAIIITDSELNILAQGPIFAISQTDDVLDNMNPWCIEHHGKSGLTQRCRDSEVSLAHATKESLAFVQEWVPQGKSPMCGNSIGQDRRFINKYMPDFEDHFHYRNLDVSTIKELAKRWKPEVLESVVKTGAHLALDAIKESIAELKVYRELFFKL", "assay": "X-ray crystal structure, […] Å", "type": "binding", "conditions": "5 mM pNP-TMP, 1 mM MnCl2 added, no metal seen in active site; two molecules per site; inactive mutant"}, "CpsORN [2]": {"molecular_target": "T2, CpsORN (Colwellia psychrerythraea, UniProt Q47VZ4)", "T2 construct": "gene orn", "assay": "spectrophotometric release of p-nitrophenolate at […] nm", "type": "biochemical", "conditions": "3 mM substrate, 1 mM MnCl2, 50 mM Tris pH 8.0, 150 mM NaCl, 25 °C, 400 nM protein"}, "CpsORN [3]": {"molecular_target": "T2, CpsORN", "assay": "X-ray crystal structure, […] Å", "type": "binding", "conditions": "5 mM uridine added, 1 mM MnCl2; active site with Mn2+; two molecules per site; text describes a phosphate on U2"}, "[4]": {"molecular_target": "the molecule itself", "assay": "AUC; sedimentation velocity, 0.5 mg/mL CpsORN in 20 mM Tris-HCl pH 8.0, 150 mM NaCl, 45,000 rpm, monitored at 280 nm, SEDFIT"}, "[5]": {"molecular_target": "the molecule itself", "assay": "crystal structure; four crystal forms (unliganded, pNP-TMP-bound, linked uridine-bound, separated uridine-bound), sitting- or hanging-drop vapour diffusion at 293 K"}}, "note": "Substitutions are numbered along the chain they refer to. Names and notes keep the numbering of the source."}
{"molecule": "Cc1cn([C@H]2C[C@H](O)[C@@H](COP(=O)(O)Oc3ccc([N+](=O)[O-])cc3)O2)c(=O)[nH]c1=O", "note": "[pNP-TMP]", "values": [{"measurement": "X-ray crystal structure, 2.2 Å", "setting": "CpsORN [1]", "result": "The pNP-TMP complexed D163A mutant CpsORN crystal contains two pNP-TMP molecules in the active site"}, {"measurement": "spectrophotometric release of p-nitrophenolate at 420 nm", "setting": "CpsORN [2]", "result": "CpsORN showed hydrolysis activity toward pNP-TMP in the presence of manganese or magnesium"}]}
{"molecule": "O=c1ccn([C@@H]2O[C@H](COP(=O)(O)O)[C@@H](O)[C@H]2O)c(=O)[nH]1", "values": [{"measurement": "X-ray crystal structure, 2.2 Å", "setting": "CpsORN [3]", "result": "6A4F (separated uridine-bound CpsORN)"}]}
{"molecule": "B1", "values": [{"measurement": "stoichiometry N", "setting": "[4]", "result": 2}]}
{"molecule": "B2", "values": [{"measurement": "binding result", "setting": "[5]", "result": "binds"}]}
